Tested on: 292921-168-R-J2-PDC KRAS tumor spheroid viability
Assay: Anticancer human tumor 292921-168-R-J2-PDC patient-derived pancreatic carcinoma cell line growth inhibition [KRAS2]
Settings: spheroids with HUVEC and MSC; for viability, T/C: stronger effect = lower value
Procedure, shortened: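 Combination screen of spheroid viability in tumor-cell co-cultures with endothelial (HUVEC) and mesenchymal stem cell stroma. Each agent was tested in half-log dilutions, topping at clinical Cmax or at 10 microM without a known Cmax.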

[1] = curve of first compound, second compound 0.1 µM
[2] = curve of first compound, second compound 0.316 µM
[3] = curve of first compound, second compound 1 µM
[4] = curve of first compound, second compound 3.16 µM
[5] = curve of first compound, second compound 10 µM
[6] = second compound 0.1 µM, first compound 0.0316 µM
[7] = second compound 0.316 µM, first compound 0.0316 µM
[8] = second compound 1 µM, first compound 0.0316 µM
[9] = second compound 3.16 µM, first compound 0.0316 µM
[10] = second compound 10 µM, first compound 0.0316 µM
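Note: drug exposure lasted seven days after spheroids formed for three days.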
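Throughout, for viability, T/C: percent of DMSO vehicle control viability which is 100%.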

With `CC(=O)Nc1cccc(-n2c(=O)n(C3CC3)c(=O)c3c(Nc4ccc(I)cc4F)n(C)c(=O)c(C)c32)c1` + CNCc1ccccc1-c1csc(C(C)Nc2nc(C)nc3cc(OC)c(OC)cc23)c1 the IC50 [1] was 0.207 nM, the IC50 [2] was 0.178 nM and the IC50 [3] was 0.124 nM. The IC50 [4] was < 0.1 nM, the IC50 [5] was < 0.1 nM and the viability, T/C (second compound 0.1 µM, first compound 0.0001 µM) was 66%. It also gave a viability, T/C (second compound 0.1 µM, first compound 0.000316 µM) of 41.9%, a viability, T/C (second compound 0.1 µM, first compound 0.001 µM) of 20.2% and a viability, T/C (second compound 0.1 µM, first compound 0.00316 µM) of 17.5%. The viability, T/C (second compound 0.1 µM, first compound 0.01 µM) was 12%, the viability, T/C [6] was 8.12% and the viability, T/C (second compound 0.316 µM, first compound 0.0001 µM) was 64.5%. It also gave a viability, T/C (second compound 0.316 µM, first compound 0.000316 µM) of 35.3%, a viability, T/C (second compound 0.316 µM, first compound 0.001 µM) of 21.8% and a viability, T/C (second compound 0.316 µM, first compound 0.00316 µM) of 16.3%. It also gave a viability, T/C (second compound 0.316 µM, first compound 0.01 µM) of 12.3%, a viability, T/C [7] of 8.64% and a viability, T/C (second compound 1 µM, first compound 0.0001 µM) of 55%. For the same compound, the viability, T/C (second compound 1 µM, first compound 0.000316 µM) was 28.2%, the viability, T/C (second compound 1 µM, first compound 0.001 µM) was 17.9% and the viability, T/C (second compound 1 µM, first compound 0.00316 µM) was 13.7%. For the same compound, the viability, T/C (second compound 1 µM, first compound 0.01 µM) was 10.4%, the viability, T/C [8] was 8.11% and the viability, T/C (second compound 3.16 µM, first compound 0.0001 µM) was 0.21%. It also gave a viability, T/C (second compound 3.16 µM, first compound 0.000316 µM) of 0.07%, a viability, T/C (second compound 3.16 µM, first compound 0.001 µM) of 0.05% and a viability, T/C (second compound 3.16 µM, first compound 0.00316 µM) of 0.04%. It also gave a viability, T/C (second compound 3.16 µM, first compound 0.01 µM) of 0.04%, a viability, T/C [9] of 0.15% and a viability, T/C (second compound 10 µM, first compound 0.0001 µM) of 0.11%. The viability, T/C (second compound 10 µM, first compound 0.000316 µM) was 0.11%, the viability, T/C (second compound 10 µM, first compound 0.001 µM) was 0.11% and the viability, T/C (second compound 10 µM, first compound 0.00316 µM) was 0.12%. For the same compound, the viability, T/C (second compound 10 µM, first compound 0.01 µM) was 0.12% and the viability, T/C [10] was 0.2%.

`CC(C)NCC(C(=O)N1CCN(c2ncnc3c2C(C)CC3O)CC1)c1ccc(Cl)cc1` (stereo unspecified) + CC1OCC2(CCN(c3cnc(Sc4ccnc(N)c4Cl)c(N)n3)CC2)C1N was tested, and the IC50 [1] was 5030 nM, the IC50 [2] was 3620 nM and the IC50 [3] was < 31.6 nM. For the same compound, the IC50 [4] was < 31.6 nM, the IC50 [5] was < 31.6 nM and the viability, T/C [6] was 67.3%. It also gave a viability, T/C (second compound 0.1 µM, first compound 0.1 µM) of 65.3%, a viability, T/C (second compound 0.1 µM, first compound 0.316 µM) of 65% and a viability, T/C (second compound 0.1 µM, first compound 1 µM) of 67%. The viability, T/C (second compound 0.1 µM, first compound 3.16 µM) was 58%, the viability, T/C (second compound 0.1 µM, first compound 10 µM) was 36.8% and the viability, T/C [7] was 51.1%. The viability, T/C (second compound 0.316 µM, first compound 0.1 µM) was 57%, the viability, T/C (second compound 0.316 µM, first compound 0.316 µM) was 56.8% and the viability, T/C (second compound 0.316 µM, first compound 1 µM) was 55.7%. For the same compound, the viability, T/C (second compound 0.316 µM, first compound 3.16 µM) was 52.3%, the viability, T/C (second compound 0.316 µM, first compound 10 µM) was 31.1% and the viability, T/C [8] was 46.2%. The viability, T/C (second compound 1 µM, first compound 0.1 µM) was 42.9%, the viability, T/C (second compound 1 µM, first compound 0.316 µM) was 48.1% and the viability, T/C (second compound 1 µM, first compound 1 µM) was 46.1%. The viability, T/C (second compound 1 µM, first compound 3.16 µM) was 39.3%, the viability, T/C (second compound 1 µM, first compound 10 µM) was 25.9% and the viability, T/C [9] was 36.1%. It also gave a viability, T/C (second compound 3.16 µM, first compound 0.1 µM) of 36.5%, a viability, T/C (second compound 3.16 µM, first compound 0.316 µM) of 39.9% and a viability, T/C (second compound 3.16 µM, first compound 1 µM) of 41.7%. It also gave a viability, T/C (second compound 3.16 µM, first compound 3.16 µM) of 37.4%, a viability, T/C (second compound 3.16 µM, first compound 10 µM) of 22.7% and a viability, T/C [10] of 33.6%. It also gave a viability, T/C (second compound 10 µM, first compound 0.1 µM) of 33.8%, a viability, T/C (second compound 10 µM, first compound 0.316 µM) of 39.4% and a viability, T/C (second compound 10 µM, first compound 1 µM) of 33.8%. It also gave a viability, T/C (second compound 10 µM, first compound 3.16 µM) of 32.9% and a viability, T/C (second compound 10 µM, first compound 10 µM) of 20.6%.

With `COc1cc2nc(C)nc(NC(C)c3cc(N)cc(C(F)(F)F)c3)c2cc1OC1CCOC1` (stereo unspecified) the IC50 (compound alone, run of 09/02/2021) was 4.36 µM [middle of 5 runs].
